Test system: Serotoninödem an der Ratte
Assay: Antiserotonin effect on serotonin-induced oedema in the rat (set-up according to Winter, Risley and Nuss)
Assay type: in vivo
Conditions: dose 0,005 mg/kg i. p., mean inhibition versus control group, values statistically significant for A and B; for prozentuale Hemmung nach Serotoningabe (%) nach 30 min: 30 min after serotonin; for prozentuale Hemmung nach Serotoningabe (%) nach 90 min: 90 min after serotonin; for prozentuale Hemmung nach Serotoningabe (%) nach 150 min: 150 min after serotonin; for prozentuale Hemmung nach Serotoningabe (%) nach 210 min: 210 min after serotonin; for prozentuale Hemmung nach Serotoningabe (%) nach 270 min: 270 min after serotonin

| Structure (SMILES) | prozentuale Hemmung nach Serotoningabe (%) nach 30 min [%] | prozentuale Hemmung nach Serotoningabe (%) nach 90 min [%] | prozentuale Hemmung nach Serotoningabe (%) nach 150 min [%] | prozentuale Hemmung nach Serotoningabe (%) nach 210 min [%] | prozentuale Hemmung nach Serotoningabe (%) nach 270 min [%] |
| --- | --- | --- | --- | --- | --- |
| C[C@@H](CO)NC(=O)[C@@H]1C=C2c3cccc4c3c(cn4Cc3ccc(Cl)cc3)C[C@H]2N(C)C1 [Verb. B, 1-(4'-Chlorbenzyl)-ergometrindimaleinat] | 44 | 45 | 46 | 61 | 58 |
| CC[C@@H](CO)NC(=O)[C@@H]1C=C2c3cccc4c3c(cn4C)C[C@H]2N(C)C1 [Methysergid, reference compound] | 68 | 60 | 36 | 34 | 46 |
| C[C@@H](CO)NC(=O)[C@@H]1C=C2c3cccc4c3c(cn4Cc3cccc(F)c3)C[C@H]2N(C)C1 [Verb. A, 1-(3'-Fluorbenzyl)-ergometrindimaleinat] | 44 | 50 | 36 | 55 | 56 |

— EP0029082B1, “1-Benzylated ergometrine derivatives, process for their preparation and pharmaceutical compositions containing them” (VEB Arzneimittelwerk Dresden, priority 1979, dated 1981)
